Source: paper PMC9929129, “Towards Translation of PqsR Inverse Agonists: From In Vitro Efficacy Optimization to In Vivo Proof‐of‐Principle” (Advanced Science, 2023)
Read-outs that look alike come from different tables or passages of the source.

Tests used:
[1] = In vivo PK study, IP, SC and PO; settings: male, CD-1, mouse, plasma, 20 mg/kg
Experimental: For pharmacokinetic experiments via the intraperitoneally (IP), subcutaneously (SC) and perorally
(PO) route 4 weeks old outbred male CD-1 mice (Charles River, Netherlands) were used.
were administered 24 at 20 mg/kg intraperitoneally (IP), subcutaneously (SC) and perorally (PO).
About 20 μL of whole blood was collected serially from the lateral tail vein at time points t = 0.25
(only IP and SC), 0.5, 1, 2, 4, and 8 h post administration.
was collected from the heart. Whole blood was collected into Eppendorf tubes coated with 0.5 M EDTA and immediately spun down at 13,000 rpm for 10 min at 4 °C. The plasma was transferred into
a new Eppendorf tube and then stored at −80 °C until analysis.

[2] = system: Pseudomonas aeruginosa strain PA14; assay: Alkylquinolone quantification, strain PA14; type: cell-based
Experimental: 1.2.2 Pyocyanin assay in Pseudomonas aeruginosa
Inhibition of pyocyanin biosynthesis of compounds was measured spectrophotometrically as previously described.[2] Pseudomonas aeruginosa PA14 was grown in rich medium for 16 h under agitation with and without compound. Pyocyanin was extracted from cultures with chloroform, then re-extracted with 0.2 M HCl and quantified photometrically (520 nm). IC50 values were determined from dose-response curves of compounds using at least six different concentrations and fitting with non-linear regression analysis (OriginPro 2017–2020, Originlab Corporation).
1.2.3 Alkylquinolone quantification
Inhibition of alkylquinolone (AQ) signal molecule biosynthesis of compound 24 was analyzed via LC-ESI-MS/MS. Extracellular concentrations of the AQs PQS (2-heptyl-3-hydroxy-4-quinolone), HHQ (2-heptyl-4-quinolone), HQNO (N-oxo-2-heptyl-4-Hydroxyquinoline), 2-AA (2-aminoacetophenone) were measured from supernatants of cultures incubated with or without compound for 17 h. 5,6,7,8-Tetradeutero-2-heptyl-4(1H)-quinolone (HHQ-d4) was added as internal standard before sample preparation. IC50 values were calculated according to the procedure of the pyocyanin assay (see above). LC-ESI-MS/MS conditions were as follows: Dionex Ultimate 3000 HPLC instrument parameters: Zorbax Eclipse XDB 80 Å C18 5 µm 4.6 x 50 mm (Agilent, Santa Clara, CA, USA); eluent A – H2O with 0.1% trifluoroacetic acid (TFA), 0.1% pentafluoropropionic acid (PFPA), 0.1% heptafluorobutyric acid (HFBA); eluent B – acetonitrile with 0.1% TFA, 0.1% PFPA, 0.1% HFBA; isocratic 50% A; flow – 0.7 mL/min. TSQ Quantum Access Max (Thermo Fisher Scientific, Waltham, MA, USA) instrument parameters: Spray voltage 3500 V, vaporizer temperature 370 °C, sheath gas pressure 35 psi, aux gas pressure 30 psi, capillary temperature 270 °C, collision pressure 1.5 mTorr, positive ionization mode. For AQ analyte reaction monitoring parameters please see Table S1.
Table S1. LC-ESI-MS/MS reaction monitoring parameters of AQ analytes in positive ionization mode. […]
Six replicates per sample were distributed evenly across the plate, with every row containing one replicate of each sample. The well plate was covered with the peg lid. One layer of parafilm was wrapped around the biofilm inoculator. The inoculator was incubated at 37 °C, static for 24 h with a beaker of H2O ensuring humidity. Alternatively, the plate was incubated using only LB for 8 h prior to addition of DMSO/24 to give 1% DMSO, followed by another 16 h incubation under the same […]
After 24 h, the plate was removed from the incubator and the peg lid was transferred to a fresh 96 well plate (Nunc U bottom, Thermo Fisher, Dreieich, Germany) containing the respective target

CYP2D6 = target: T1, CYP2D6 (Homo sapiens, UniProt P10635); assay: Cytochrome P450 inhibition assay, CYP2D6; type: in vitro ADME; settings: Metabolic activity
T1 construct: Cyprotex
Experimental: 1.4.4 Pharmacokinetic and off-target functional assays (Cyprotex)
Compound 24 was assayed at Cyprotex in functional assays for interference with important off-targets as well as important pharmacokinetic parameters. With the exception of plasma protein binding, a dose-response relationship was studied in order to calculate IC50 values.
Table S10. Information on in vitro ADMET assays performed at Cyprotex. […]
An increase in the number of colonies of at least two-fold over baseline (mean + SD of the vehicle control) and a dose response indicate a positive response. An […]
different from the vehicle control.
Where indicated, S9 fraction from the livers of Aroclor 1254-treated rats were included in the incubation at a final concentration of 4.5%. A NADPH-regenerating system was also included to ensure a steady supply of reducing equivalents.

T1 sequence (P10635 whole entry): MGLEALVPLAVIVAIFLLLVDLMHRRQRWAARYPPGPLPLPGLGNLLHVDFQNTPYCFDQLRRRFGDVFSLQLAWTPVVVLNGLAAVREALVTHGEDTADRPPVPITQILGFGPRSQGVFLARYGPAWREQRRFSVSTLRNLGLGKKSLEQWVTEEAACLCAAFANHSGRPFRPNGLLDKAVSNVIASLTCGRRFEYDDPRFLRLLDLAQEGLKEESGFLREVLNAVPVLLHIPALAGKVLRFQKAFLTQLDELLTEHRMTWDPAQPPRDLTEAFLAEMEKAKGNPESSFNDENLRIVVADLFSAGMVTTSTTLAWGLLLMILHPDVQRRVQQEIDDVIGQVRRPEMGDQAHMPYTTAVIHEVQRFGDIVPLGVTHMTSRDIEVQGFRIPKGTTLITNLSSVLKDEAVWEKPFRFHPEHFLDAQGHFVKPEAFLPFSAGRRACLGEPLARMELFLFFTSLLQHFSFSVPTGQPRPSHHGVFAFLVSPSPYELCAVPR

`CC(C)Oc1ccc(-c2ncc(CNc3ccnc(C(F)(F)F)c3)cn2)cc1Cl` [Compound 24] showed a bioavailability ([1]; intraperitoneal) of roughly 36%, an AUC(0-t) ([1]; ip) of 557 µg·h/mL and a CL/F ([1]; ip) of 1.7 ± 1.8 mL/min/kg. It also gave a Cmax ([1]; ip) of 65.8 µg/mL, a Tmax ([1]; ip) of 1 h and a Vd/F ([1]; ip) of 0.25 ± 0.3 L/kg. It also gave a bioavailability ([1]; ip) of 36.1%, a half-life ([1]; ip) of 1.68 h and a CL/F ([1]; po) of 1.58 ± 0.4 mL/min/kg. It also gave a Cmax ([1]; po) of 45.6 µg/mL, a Tmax ([1]; po) of 0.83 ± 0.2 h and a Vd/F ([1]; po) of 0.25 L/kg. For the same compound, the bioavailability ([1]; po) was 13.8%, the half-life ([1]; po) was 1.9 ± 0.5 h and the AUC(0-t) ([1]; sc) was 363 µg·h/mL. It also gave a CL/F ([1]; sc) of 0.93 ± 0.1 mL/min/kg, a Tmax ([1]; sc) of 2 h and a Vd/F ([1]; sc) of 0.12 L/kg. The bioavailability ([1]; sc) was 23.5%, the half-life ([1]; sc) was 1.51 h and the IC50 ([2]; PA14, 17 h, read-out: IC50 PA14, 2‐AA biosynthesis) was 386 nM. For the same compound, the IC50 ([2]; PA14, 17 h, read-out: IC50 PA14, HHQ biosynthesis) was 233 nM, the IC50 ([2]; PA14, 17 h, read-out: IC50 PA14, HQNO biosynthesis) was 347 nM and the IC50 ([2]; PA14, 17 h, read-out: IC50 PA14, PQS biosynthesis) was 349 nM. It also gave an IC50 ([2]; PA14, read-out: IC50 values for individual AQs) of 160 to 453 nM and an IC50 (CYP2D6) greater than 25000 nM.
